Reference: paper PMC10141580, “Cyclic Dichalcogenides Extend the Reach of Bioreductive Prodrugs to Harness Thiol/Disulfide Oxidoreductases: Applications to seco-Duocarmycins Targeting the Thioredoxin System” (ACS Central Science, 2023)
Like-named read-outs stand apart in the source and are kept apart here.

System: panel of 140 standard cancer cell lines
Test: ProliFiler-140 cancer cell line screen (CellTiterGlo, 72 h)
Format: cell-based
Protocol: Incubations were performed for 72 h before automated viability readout with CellTiterGlo (Figure 8).
End of Figure S11 (part 5 of 5): ProliFiler-140 cancer cell line screening for cytotoxicity of the prodrugs.
8-data-point dose response curves from CellTiter-Glo® viability readout.
ProliFiler-140 cell line panel part V

IC50 (A172 (Brain), listed as Dox, read-out: IC50 [M] (ProliFiler-140)): 9.4e-08 M
IC50 (A375 (Skin), listed as Dox, read-out: IC50 [M] (ProliFiler-140)): 4.8e-08 M
IC50 (A427 (Lung), listed as Dox, read-out: IC50 [M] (ProliFiler-140)): 6.56e-08 M
IC50 (A431 (Skin), listed as Dox, read-out: IC50 [M] (ProliFiler-140)): 1.7e-07 M
IC50 (A549 (Lung), listed as Dox, read-out: IC50 [M] (ProliFiler-140)): 3.11e-07 M
IC50 (A2058 (Skin), listed as Dox, read-out: IC50 [M] (ProliFiler-140)): 3.73e-08 M
IC50 (AsPC-1 (Pancreas), listed as Dox, read-out: IC50 [M] (ProliFiler-140)): 1.16e-06 M
IC50 (BT-20 (Breast), listed as Dox, read-out: IC50 [M] (ProliFiler-140)): 2.35e-07 M
IC50 (BxPC-3 (Pancreas), listed as Dox, read-out: IC50 [M] (ProliFiler-140)): 2.8e-07 M
IC50 (COR-L279 (Lung), listed as Dox, read-out: IC50 [M] (ProliFiler-140)): 7.88e-08 M
IC50 (COV434 (Ovary), listed as Dox, read-out: IC50 [M] (ProliFiler-140)): 6.97e-08 M
IC50 (COV434, COV434 (Ovary), read-out: IC50 [M] (ProliFiler-140)): 7e-08 M
IC50 (Caki-1 (Kidney), listed as Dox, read-out: IC50 [M] (ProliFiler-140)): 3.4e-07 M
IC50 (Caki-2 (Kidney), listed as Dox, read-out: IC50 [M] (ProliFiler-140)): 1e-06 M
IC50 (Calu-6 (Lung), listed as Dox, read-out: IC50 [M] (ProliFiler-140)): 7.7e-07 M
IC50 (DU-145 (Prostate), listed as Dox, read-out: IC50 [M] (ProliFiler-140)): 1.52e-07 M
IC50 (DV90 (Lung), listed as Dox, read-out: IC50 [M] (ProliFiler-140)): 1.95e-08 M
IC50 (EFM-19 (Breast), listed as Dox, read-out: IC50 [M] (ProliFiler-140)): 4.73e-07 M
IC50 (EFM-192A (Breast), listed as Dox, read-out: IC50 [M] (ProliFiler-140)): 7.35e-07 M
IC50 (EFM-192A, EFM-192A (Breast), read-out: IC50 [M] (ProliFiler-140)): 7.3e-07 M
IC50 (EFO-27 (Ovary), listed as Dox, read-out: IC50 [M] (ProliFiler-140)): 2.93e-07 M
IC50 (H4 (Brain), listed as Dox, read-out: IC50 [M] (ProliFiler-140)): 8.2e-08 M
IC50 (H4 (Brain), read-out: IC50 [M] (ProliFiler-140)): 8.18e-08 M
IC50 (H1299 (Lung), listed as Dox, read-out: IC50 [M] (ProliFiler-140)): 2.2e-07 M
IC50 (H2228 (Lung), listed as Dox, read-out: IC50 [M] (ProliFiler-140)): 5.7e-08 M
IC50 (HCC202 (Breast), listed as Dox, read-out: IC50 [M] (ProliFiler-140)): 7.65e-07 M
IC50 (HCC202, HCC202 (Breast), read-out: IC50 [M] (ProliFiler-140)): 7.6e-07 M
IC50 (HCC827 (Lung), listed as Dox, read-out: IC50 [M] (ProliFiler-140)): 3.48e-07 M
IC50 (HCC 1569 (Breast), listed as Dox, read-out: IC50 [M] (ProliFiler-140)): 7.01e-07 M
IC50 (HCT-15 (Colon), listed as Dox, read-out: IC50 [M] (ProliFiler-140)): 6.4e-07 M
IC50 (HEC-1-A (Endometrium), listed as Dox, read-out: IC50 [M] (ProliFiler-140)): 3.27e-07 M
IC50 (HEC-1-B (Endometrium), listed as Dox, read-out: IC50 [M] (ProliFiler-140)): 2.37e-06 M
IC50 (HL-60 (Blood), listed as Dox, read-out: IC50 [M] (ProliFiler-140)): 2.65e-08 M
IC50 (HT-29 (Colon), listed as Dox, read-out: IC50 [M] (ProliFiler-140)): 3.69e-07 M
IC50 (HeLa (Cervix), listed as Dox, read-out: IC50 [M] (ProliFiler-140)): 8e-08 M
IC50 (Hep3B2.1-7 (Liver), listed as Dox, read-out: IC50 [M] (ProliFiler-140)): 5.32e-07 M
IC50 (Hep3B2.1-7 (Liver), read-out: IC50 [M] (ProliFiler-140)): 5.3e-07 M
IC50 (Homo sapiens, 786-0, 786-O (Kidney), read-out: IC50 [M] (ProliFiler-140)): 1.15e-07 M
IC50 (Homo sapiens, 786-0, 786-O, read-out: IC50): 1.1e-07 M
IC50 (Homo sapiens, A 172, A172 (Brain), read-out: IC50 [M] (ProliFiler-140)): 9.38e-08 M
IC50 (Homo sapiens, A498, A498 (Kidney), read-out: IC50 [M] (ProliFiler-140)): 3.22e-07 M
IC50 (Homo sapiens, A498, A498, read-out: IC50): 3.2e-07 M
IC50 (Homo sapiens, A549, A549, read-out: IC50): 3.1e-07 M
IC50 (Homo sapiens, A2058, A2058 (Skin), read-out: IC50 [M] (ProliFiler-140)): 3.7e-08 M
IC50 (Homo sapiens, A2780, A2780 (Ovary), read-out: IC50 [M] (ProliFiler-140)): 1.8e-08 M
IC50 (Homo sapiens, A-375, A375 (Skin), read-out: IC50 [M] (ProliFiler-140)): 4.76e-08 M
IC50 (Homo sapiens, A-427, A427 (Lung), read-out: IC50 [M] (ProliFiler-140)): 6.6e-08 M
IC50 (Homo sapiens, A-431, A431 (Skin), read-out: IC50 [M] (ProliFiler-140)): 1.74e-07 M
IC50 (Homo sapiens, ASPC1, AsPC-1 (Pancreas), read-out: IC50 [M] (ProliFiler-140)): 1.2e-06 M
IC50 (Homo sapiens, BT-20, BT-20 (Breast), read-out: IC50 [M] (ProliFiler-140)): 2.3e-07 M
IC50 (Homo sapiens, BXPC-3, BxPC-3 (Pancreas), read-out: IC50 [M] (ProliFiler-140)): 2.78e-07 M
IC50 (Homo sapiens, CAKI-1, Caki-1 (Kidney), read-out: IC50 [M] (ProliFiler-140)): 3.39e-07 M
IC50 (Homo sapiens, CAKI-2, Caki-2 (Kidney), read-out: IC50 [M] (ProliFiler-140)): 1.03e-06 M
IC50 (Homo sapiens, COR-L279, COR-L279 (Lung), read-out: IC50 [M] (ProliFiler-140)): 7.9e-08 M
IC50 (Homo sapiens, Calu-6, Calu-6 (Lung), read-out: IC50 [M] (ProliFiler-140)): 7.69e-07 M
IC50 (Homo sapiens, DLD-1, DLD-1 (Colon), read-out: IC50 [M] (ProliFiler-140)): 1.37e-07 M
IC50 (Homo sapiens, DU-145, DU-145 (Prostate), read-out: IC50 [M] (ProliFiler-140)): 1.5e-07 M
IC50 (Homo sapiens, DU-145, DU-145, read-out: IC50): 1.5e-07 M
Compound: COc1cccc2c1C(=O)c1c(O)c3c(c(O)c1C2=O)C[C@@](O)(C(=O)CO)C[C@@H]3O[C@H]1C[C@H](N)[C@H](O)[C@H](C)O1 [doxorubicin, reference compound]
